One data set concerns diarrhea. As to the kind of experiment: Inducing effect of diarrhea (rats, oral administration).
The subject of data set [1] is Diclofenac sodium-induced stomach ulcer. As to the kind of experiment: Administering time of Ornoprostil and suppression of Diclofenac sodium-induced stomach ulcer. Type of data set: in vivo, rat. Conditions: for Antiulcer coefficient: inhibition ratio/incidence rate; for Incidence rate of ulcer (Number of Examples): rat oral.
The test system of data set [2] is glycerol-induced nephropathy. Put plainly: Glycerol-induced nephropathy. Type of data set: in vivo, rat. The conditions noted are these: serum 48 hours after glycerol. As for the experimental part:
After weighing SPF/Crj strain maleness rats (9 weeks of ages), they were so divided that average weight of each group might almost be equal. At 48 hours after 50% glycerol (10 ml/kg) (medium: physiological salt solution) was subcutaneously administered to rats deprived water for 48 hours (±2 hour) on […], about 1.5 ml of blood was gathered from the jugular under ether anesthesia. […] Water was supplied to them 2 hour later from administration of glycerol. Those serums were obtained by centrifugal separation (for about 4° C., 3000 rpm, for 15 minutes) of the gathered blood. Urea nitrogen (abbreviated as UN.) (urease·GIDH method) and creatinine (abbreviated as CRE.) (Creatininase·F-DAOS method) in the obtained serum were measured with the biochemistry automated analyzer (AU400 (trade name), Olympus Optical Co., Ltd.).

Setting [3] is: OU 0 minutes before Di administering.
The mark [4] stands for this setting: OU 5 minutes after Di administering.
[5] abbreviates: OU 5 minutes before Di administering.
The mark [6] stands for this setting: OU 10 minutes after Di administering.
Where [7] appears, read: OU 10 minutes before Di administering.
Setting [8] is: OU 30 minutes after Di administering.
Setting [9] is: OU 30 minutes before Di administering.
Setting [10] is: OU 60 minutes after Di administering.
[11] abbreviates: OU 60 minutes before Di administering.
Setting [12] is: GC (subcutis) + OU (10 μg) oral.

Consider “15-deoxy-16-hydroxy-16-methyl-PGE1 methyl ester [Misoprostol]”, for which the “Number of animals which cause diarrhea/number of laboratory animals” value is recorded as 0/5 with diarrhea (50 μg/kg) and 1/5 in the data set on diarrhea (100 μg/kg).

In the case of `CCCC[C@H](C)C[C@H](O)/C=C/[C@H]1[C@H](O)CC(=O)[C@@H]1CC(=O)CCCCC(=O)OC` [Ornoprostil, 17S, 20-dimethyl-6-keto PGE1 methyl ester], the Antiulcer coefficient in data set [1] (setting [3]) amounted to 86.9; in data set [1] (setting [4]), 7.1; in data set [1] (setting [5]), 100.9; in data set [1] (setting [6]), 28.8; in data set [1] (setting [7]), 125.1; in data set [1] (setting [8]), 16.1. For the same molecule, the Antiulcer coefficient is recorded as 56.2 in data set [1] (setting [9]), 4.1 in data set [1] (setting [10]) and 97.3 in data set [1] (setting [11]). Also, the “Incidence rate of ulcer (Number of Examples)” value in data set [1] (setting [3]) was 7/8; in data set [1] (setting [4]), 7/8; in data set [1] (setting [5]), 6/8; in data set [1] (setting [6]), 8/8; in data set [1] (setting [7]), 5/8; in data set [1] (setting [8]) it was 7/8. The “Incidence rate of ulcer (Number of Examples)” value in data set [1] (setting [9]) is recorded as 7/8; in data set [1] (setting [10]), 6/8; in data set [1] (setting [11]) it was 7/8. The “Dose which generates induced effect of diarrhea” value in the data set with diarrhea was ≥ 0.4 mg/kg. Further, the results for the “CRE (serum creatinine)” value in data set [2] (GC (subcutis) + OU (3 μg) oral) and in data set [2] (setting [12]) were 1.38 mg/dL and 1.03 mg/dL, respectively. Besides, the “UN (serum urea nitrogen)” value was 89.7 mg/dL in data set [2] (GC (subcutis) + OU (3 μg) oral) and 79.9 mg/dL in data set [2] (setting [12]).

(Values after patent publication US20040068014A1 (priority 2001, published 2004).)
